PubChem BioAssay AID248 (DTP/NCI, 2004)
Toxic doses and inconclusive results are not listed. Rule as the data show it: active = T/C of 150% or more; inactive = T/C below 125%.

System: L1210 leukemia ip in BDF1 mice, survival T/C
Experiment: NCI In Vivo Anticancer Drug Screen. Data for tumor model L1210 Leukemia (intraperitoneal) in B6D2F1 (BDF1) mice
Conditions: endpoint: mean survival time, higher = longer survival
Outline: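 Tumor cells were implanted, animals were treated, and survival was followed. The result divides the treated measurement by the vehicle-control measurement.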

[1] = dose: 100.0 mg/kg/injection, schedule: Q04DX003 (ip), vehicle: Klucel (hydroxypropylcellulose) (HPC)
[2] = dose: 200.0 mg/kg/injection, schedule: Q04DX003 (ip), vehicle: Klucel (hydroxypropylcellulose) (HPC)
[3] = dose: 400.0 mg/kg/injection, schedule: Q04DX003 (ip), vehicle: Klucel (hydroxypropylcellulose) (HPC)
[4] = dose: 50.0 mg/kg/injection, schedule: Q01DX001 (ip), vehicle: saline
[5] = dose: 100.0 mg/kg/injection, schedule: Q01DX001 (ip), vehicle: saline
[6] = dose: 200.0 mg/kg/injection, schedule: Q01DX001 (ip), vehicle: saline
[7] = dose: 400.0 mg/kg/injection, schedule: Q01DX001 (ip), vehicle: saline
[8] = dose: 75.0 mg/kg/injection, schedule: Q01DX001 (ip), vehicle: saline
[9] = dose: 150.0 mg/kg/injection, schedule: Q01DX001 (ip), vehicle: saline
[10] = dose: 100.0 mg/kg/injection, schedule: Q04DX003 (ip), vehicle: saline
[11] = dose: 200.0 mg/kg/injection, schedule: Q04DX003 (ip), vehicle: saline
[12] = dose: 100.0 mg/kg/injection, schedule: Q01DX009 (ip), vehicle: Klucel (hydroxypropylcellulose) (HPC)
[13] = dose: 200.0 mg/kg/injection, schedule: Q01DX009 (ip), vehicle: Klucel (hydroxypropylcellulose) (HPC)
[14] = dose: 100.0 mg/kg/injection, schedule: Q01DX001 (ip), vehicle: carboxymethylcellulose (CMC)
[15] = dose: 200.0 mg/kg/injection, schedule: Q01DX001 (ip), vehicle: carboxymethylcellulose (CMC)
[16] = dose: 400.0 mg/kg/injection, schedule: Q01DX001 (ip), vehicle: carboxymethylcellulose (CMC)
[17] = dose: 400.0 mg/kg/injection, schedule: Q01DX009 (ip), vehicle: Klucel (hydroxypropylcellulose) (HPC)

Measured: T/C

O=[N+]([O-])c1ccc(N/N=C/C23CC4CC(CC(C4)C2)C3)c([N+](=O)[O-])c1
inactive: dose: 3.12 mg/kg/injection, schedule: Q04DX002 (ip), vehicle: Klucel (hydroxypropylcellulose) (HPC) 121 % of control | dose: 6.25 mg/kg/injection, schedule: Q04DX002 (ip), vehicle: Klucel (hydroxypropylcellulose) (HPC) 110 % of control | dose: 12.5 mg/kg/injection, schedule: Q04DX002 (ip), vehicle: Klucel (hydroxypropylcellulose) (HPC) 113 % of control | dose: 25.0 mg/kg/injection, schedule: Q04DX002 (ip), vehicle: Klucel (hydroxypropylcellulose) (HPC) 94 % of control | dose: 100.0 mg/kg/injection, schedule: Q01DX001 (ip), vehicle: Klucel (hydroxypropylcellulose) (HPC) 98 % of control

CN(C)c1ccc(C=Nc2cc(Cl)ccc2Cl)cc1
inactive: [1] 89 % of control | [2] 88 % of control | [3] 89 % of control

COc1ccc(/C=C2\N=C(c3ccccc3)OC2=O)c(Cl)c1OC
inactive: [4] 97 % of control | [5] 97 % of control | [6] 100 % of control | [7] 94 % of control

CCN(CC)C(=S)SCn1nc(Cl)c2ccc([N+](=O)[O-])cc21
inactive: [5] 98 % of control | [6] 98 % of control | [7] 91 % of control

NC(=O)NNC1=CC(=O)CCO1
inactive: [5] 107 % of control | [6] 106 % of control | [7] 104 % of control

BrC1C=CC=CN1C/C=C/CN1C=CC=CC1Br (stereo not given)
inactive: [8] 96 % of control | [9] 97 % of control

OC(c1ccccc1)c1ccccn1 (stereo not given)
inactive: [10] 92 % of control | [11] 115 % of control | dose: 400.0 mg/kg/injection, schedule: Q04DX003 (ip), vehicle: saline 101 % of control

N#CSC1CSC(SC2=NC(SC#N)CS2)=N1 (stereo not given)
inactive: [12] 94 % of control | [10] 98 % of control | [13] 104 % of control | [11] 92 % of control

CSc1ncc2ncn(C3OC(CO)C(O)C3O)c2n1 (stereo not given)
inactive: [14] 108 % of control | [12] 91 % of control | dose: 100.0 mg/kg/injection, schedule: Q04DX003 (ip), vehicle: other 110 % of control | [15] 102 % of control | [13] 98 % of control | dose: 200.0 mg/kg/injection, schedule: Q04DX003 (ip), vehicle: other 95 % of control | [16] 98 % of control | [17] 89 % of control | dose: 400.0 mg/kg/injection, schedule: Q04DX003 (ip), vehicle: other 100 % of control

CCCCCCCCCCNCCC(=O)O
inactive: dose: 12.5 mg/kg/injection, schedule: Q01DX001 (ip), vehicle: saline 94 % of control | dose: 25.0 mg/kg/injection, schedule: Q01DX001 (ip), vehicle: saline 94 % of control | dose: 25.0 mg/kg/injection, schedule: Q01DX009 (ip), vehicle: saline 104 % of control | dose: 37.5 mg/kg/injection, schedule: Q01DX009 (ip), vehicle: saline 104 % of control | [4] 100 % of control | dose: 50.0 mg/kg/injection, schedule: Q01DX009 (ip), vehicle: saline 102 % of control | [8] 101 % of control | dose: 75.0 mg/kg/injection, schedule: Q01DX009 (ip), vehicle: saline 88 % of control | [5] 101 % of control | dose: 100.0 mg/kg/injection, schedule: Q01DX009 (ip), vehicle: saline 104 % of control | [9] 94 % of control

NC(N)=NCCc1ccc(Cl)cc1
inactive: dose: 50.0 mg/kg/injection, schedule: Q01DX001 (ip), vehicle: Klucel (hydroxypropylcellulose) (HPC) 102 % of control

CC(C)C1C(C(=O)O)NC(=O)C1C(=O)O (stereo not given)
inactive: dose: 12.0 mg/kg/injection, schedule: Q01DX009 (ip), vehicle: saline with Tween-80 106 % of control | dose: 25.0 mg/kg/injection, schedule: Q01DX009 (ip), vehicle: Klucel (hydroxypropylcellulose) (HPC) 106 % of control | dose: 25.0 mg/kg/injection, schedule: Q01DX009 (ip), vehicle: saline with Tween-80 99 % of control | dose: 50.0 mg/kg/injection, schedule: Q01DX009 (ip), vehicle: saline with Tween-80 97 % of control | [12] 108 % of control | [1] 96 % of control | [2] 98 % of control | [3] 95 % of control

CC(=O)ONc1nc(C)c(CCC2OCCO2)c(=O)[nH]1
inactive: [12] 95 % of control | [1] 105 % of control | [13] 102 % of control | [2] 105 % of control | [17] 95 % of control | [3] 98 % of control

CN(C)CC1(c2ccccc2)CC[N+](C)(C)C1 (stereo not given)
inactive: [8] 89 % of control | [9] 93 % of control

CCC(CC)C(=O)OCC(C)(C)C
inactive: [14] 96 % of control | [15] 104 % of control | [16] 96 % of control

CSc1ccc(NC(=O)c2ccc([N+](=O)[O-])cc2)cc1
inactive: dose: 100.0 mg/kg/injection, schedule: Q04DX002 (ip), vehicle: Klucel (hydroxypropylcellulose) (HPC) 95 % of control | dose: 200.0 mg/kg/injection, schedule: Q04DX002 (ip), vehicle: Klucel (hydroxypropylcellulose) (HPC) 95 % of control | dose: 400.0 mg/kg/injection, schedule: Q04DX002 (ip), vehicle: Klucel (hydroxypropylcellulose) (HPC) 92 % of control
